From US5696151A, “Compounds useful for the inhibition of the replication of HIV-1 and HIV-1 mutants” (priority 1995, dated 1997)
≈ marks a conversion by molar mass, not a printed value. Where two headings read alike, the source gives them in different places.

Experiments:
Assay type in all cases: cell-based
in vitro = settings: human, cem cells, CC50 (50% cytostatic concentration), Table 2B; CEM cell proliferation; averages of 2 to 3 independent experiments
Description: (§1) CEM cells were obtained from the American Tissue Cell Culture Collection (Rockville, Md.). HIV-1(IIIB) was originally obtained from the culture supernatant of persistently HIV-1-infected H9 cells and was provided by R. C. Gallo and M. Popovic (National Cancer Institute, National Institutes of Health, Bethesda, Md.). […] 67: 5353-5359 (1993); HIV-1/Lys-138 ("Lys-138") was selected for resistance against TSAO-m^3T as described in Balzarini et al, Virology 192: 246-253 (1993) and Balzarini et al, Proc. Nat. Acad. Sci. USA 90: 6952-6956 (1993); HIV-1/181-Cys ("181-Cys") was selected for resistance against pyridinone L-697,661 as described in Balzarini et al, Virology 192: 246-253 (1993); and HIV-1/188-His ("188-His") was selected for resistance against HEPT as described in Balzarini et al, Mol. Pharmocol. 44: 694-701 (1993). 188-His was then further converted to HIV-1/188-Leu "188-Leu") upon further passage in cell culture in the absence of the HEPT.
^b 50% cytostatic concentration (i.e., compound concentration require
to inhibit CEM cell proliferation by 50%)

HIV-1(IIIB) = test: Inhibition of HIV-1 induced syncytium formation in CEM cells, wild type; settings: Human immunodeficiency virus 1, IIIB, CCRF-CEM, 96 h, Table 2B, WT = HIV-1(IIIB), day 4, averages of 2 to 3 independent experiments, read-out: Antiviral Activity of Comparative Compounds EC50, WT
Description: as §1
(§2) CEM cells were suspended at ≈300,000 cells per ml of culture medium and infected with approximately 100 CCID50 (CCID50 being the 50% cell culture infective dose) of HIV-1(IIIB) or one of the HIV-1 RT mutant strains described above. Then 100 μl of the infected cell suspensions was added to 200 μl microtiter plate wells containing 100 μl of appropriate serial (5-fold) dilutions of the test compounds. The inhibitory effect of the test compounds on HIV-1 induced syncytium formation in CEM cells was examined microscopically on day 4 post infection.

HIV-1/181-Cys = test: Inhibition of HIV-1 induced syncytium formation in CEM cells, RT mutant 181-Cys; settings: Human immunodeficiency virus 1, CCRF-CEM, 96 h
Description: as §1, §2

HIV-1/100-Ile = test: Inhibition of HIV-1 induced syncytium formation in CEM cells, RT mutant 100-Ile; settings: Human immunodeficiency virus 1, CCRF-CEM, 96 h
Description: as §1, §2

HIV-1/106-Ala = test: Inhibition of HIV-1 induced syncytium formation in CEM cells, RT mutant 106-Ala; settings: Human immunodeficiency virus 1, CCRF-CEM, 96 h
Description: as §1, §2

HIV-1/Lys-138 = test: Inhibition of HIV-1 induced syncytium formation in CEM cells, RT mutant 138-Lys; settings: Human immunodeficiency virus 1, CCRF-CEM, 96 h
Description: as §1, §2

[1] = Table 2B, day 4, averages of 2 to 3 independent experiments, read-out: Antiviral Activity of Comparative Compounds EC50, 181-Cys
[2] = Table 2B, day 4, averages of 2 to 3 independent experiments, read-out: Antiviral Activity of Comparative Compounds EC50, 100-Ile
[3] = Table 2B, day 4, averages of 2 to 3 independent experiments, read-out: Antiviral Activity of Comparative Compounds EC50, 106-Ala
[4] = Table 2B, day 4, averages of 2 to 3 independent experiments, read-out: Antiviral Activity of Comparative Compounds EC50, 138-Lys

SMILES: COc1ccc(NC(=O)c2ccoc2C)cc1CC(=O)OC(C)C [Compound 56]
- CC50 (in vitro): 52 µg/mL (≈ 157 µM)
- EC50 (HIV-1(IIIB)): 0.7 µg/mL (≈ 2.11 µM)
- EC50 (HIV-1/181-Cys; [1]): > 10 µg/mL
- EC50 (HIV-1/100-Ile; [2]): > 10 µg/mL
- EC50 (HIV-1/106-Ala; [3]): 6.5 µg/mL (≈ 19.6 µM)
- EC50 (HIV-1/Lys-138; [4]): ≥ 10 µg/mL

SMILES: Cc1occc1C(=S)Nc1ccc(Cl)c(C(=O)OC(C(C)C)C(C)C)c1 [Compound 102]
- CC50 (in vitro): 3.7 µg/mL (≈ 9.39 µM)
- EC50 (HIV-1(IIIB)): 0.03 µg/mL (≈ 0.0762 µM)
- EC50 (HIV-1/181-Cys; [1]): 0.65 µg/mL (≈ 1.65 µM)
- EC50 (HIV-1/100-Ile; [2]): 0.85 µg/mL (≈ 2.16 µM)
- EC50 (HIV-1/106-Ala; [3]): 0.85 µg/mL (≈ 2.16 µM)
- EC50 (HIV-1/Lys-138; [4]): 0.08 µg/mL (≈ 0.203 µM)

SMILES: C=C(C)COC(=O)c1cc(NC(=O)c2ccoc2C)ccc1Cl [Compound 50]
- CC50 (in vitro): 3.7 µg/mL (≈ 11.1 µM)
- EC50 (HIV-1(IIIB)): 0.15 µg/mL (≈ 0.449 µM)
- EC50 (HIV-1/181-Cys; [1]): 1.9 µg/mL (≈ 5.69 µM)
- EC50 (HIV-1/100-Ile; [2]): 5 µg/mL (≈ 15 µM)
- EC50 (HIV-1/106-Ala; [3]): 1 µg/mL (≈ 3 µM)
- EC50 (HIV-1/Lys-138; [4]): 1 µg/mL (≈ 3 µM)

SMILES: C#CCOc1cc(NC(=S)c2ccoc2C)ccc1Cl [Compound 117]
- CC50 (in vitro): 18 µg/mL (≈ 58.9 µM)
- EC50 (HIV-1(IIIB)): 0.06 µg/mL (≈ 0.196 µM)
- EC50 (HIV-1/181-Cys; [1]): 4 µg/mL (≈ 13.1 µM)
- EC50 (HIV-1/100-Ile; [2]): 5 µg/mL (≈ 16.4 µM)
- EC50 (HIV-1/106-Ala; [3]): 0.75 µg/mL (≈ 2.45 µM)
- EC50 (HIV-1/Lys-138; [4]): 0.35 µg/mL (≈ 1.14 µM)

SMILES: Cc1occc1C(=S)Nc1ccc(Cl)c(OCC(=O)OC(C)(C)C)c1 [Compound 115]
- CC50 (in vitro): 4.3 µg/mL (≈ 11.3 µM)
- EC50 (HIV-1(IIIB)): 0.29 µg/mL (≈ 0.759 µM)
- EC50 (HIV-1/181-Cys; [1]): 0.5 µg/mL (≈ 1.31 µM)
- EC50 (HIV-1/100-Ile; [2]): 0.65 µg/mL (≈ 1.7 µM)
- EC50 (HIV-1/106-Ala; [3]): 0.2 µg/mL (≈ 0.524 µM)
- EC50 (HIV-1/Lys-138; [4]): 0.77 µg/mL (≈ 2.02 µM)

SMILES: CC(C)C(OC(=O)c1cc(NC(=S)c2ccc[nH]2)ccc1Cl)C(C)C [Compound 99]
- CC50 (in vitro): > 100 µg/mL
- EC50 (HIV-1(IIIB)): 0.1 µg/mL (≈ 0.264 µM)
- EC50 (HIV-1/181-Cys; read-out: Antiviral Activity of Comparative Compounds EC50, 181-Cys, Table 2B, day 4, averages of 2 to 3 independent experiments): > 10 µg/mL
- EC50 (HIV-1/100-Ile; read-out: Antiviral Activity of Comparative Compounds EC50, 100-Ile, Table 2B, day 4, averages of 2 to 3 independent experiments): > 1 µg/mL
- EC50 (HIV-1/106-Ala; read-out: Antiviral Activity of Comparative Compounds EC50, 106-Ala, Table 2B, day 4, averages of 2 to 3 independent experiments): > 10 µg/mL
- EC50 (HIV-1/Lys-138; read-out: Antiviral Activity of Comparative Compounds EC50, 138-Lys, Table 2B, day 4, averages of 2 to 3 independent experiments): > 10 µg/mL

SMILES: O=C(OC1CCCCC1)c1cc(NC(=S)c2ccccc2Cl)ccc1Cl [Compound 80]
- CC50 (in vitro): 8.3 µg/mL (≈ 20.3 µM)
- EC50 (HIV-1(IIIB)): 0.5 µg/mL (≈ 1.22 µM)
- EC50 (HIV-1/181-Cys; [1]): 3 µg/mL (≈ 7.35 µM)
- EC50 (HIV-1/100-Ile; [2]): 4 µg/mL (≈ 9.8 µM)
- EC50 (HIV-1/106-Ala; [3]): 5 µg/mL (≈ 12.2 µM)
- EC50 (HIV-1/Lys-138; [4]): 4 µg/mL (≈ 9.8 µM)

SMILES: C=CCOC(=O)c1cc(NC(=S)c2ccoc2C)ccc1Cl [Compound 104]
- CC50 (in vitro): 11 µg/mL (≈ 32.8 µM)
- EC50 (HIV-1(IIIB)): 0.01 µg/mL (≈ 0.0298 µM)
- EC50 (HIV-1/181-Cys; [1]): 0.37 µg/mL (≈ 1.1 µM)
- EC50 (HIV-1/100-Ile; [2]): 0.65 µg/mL (≈ 1.94 µM)
- EC50 (HIV-1/106-Ala; [3]): 0.4 µg/mL (≈ 1.19 µM)
- EC50 (HIV-1/Lys-138; [4]): 0.2 µg/mL (≈ 0.596 µM)

SMILES: C=CCOc1cc(NC(=S)c2ccoc2C)ccc1C#N [Compound 74]
- CC50 (in vitro): > 100 µg/mL
- EC50 (HIV-1(IIIB)): 0.015 µg/mL (≈ 0.0503 µM)
- EC50 (HIV-1/181-Cys; [1]): 3 µg/mL (≈ 10.1 µM)
- EC50 (HIV-1/100-Ile; [2]): 6 µg/mL (≈ 20.1 µM)
- EC50 (HIV-1/106-Ala; [3]): 0.45 µg/mL (≈ 1.51 µM)
- EC50 (HIV-1/Lys-138; [4]): 0.09 µg/mL (≈ 0.302 µM)

SMILES: CC(C)OC(=O)c1cc(NC(=S)c2ccccc2N)ccc1Cl [Compound 85]
- CC50 (in vitro): 6.7 µg/mL (≈ 19.2 µM)
- EC50 (HIV-1(IIIB)): 0.5 µg/mL (≈ 1.43 µM)
- EC50 (HIV-1/181-Cys; [1]): 5.3 µg/mL (≈ 15.2 µM)
- EC50 (HIV-1/100-Ile; [2]): 6 µg/mL (≈ 17.2 µM)
- EC50 (HIV-1/106-Ala; [3]): 7.5 µg/mL (≈ 21.5 µM)
- EC50 (HIV-1/Lys-138; [4]): 5.5 µg/mL (≈ 15.8 µM)

SMILES: CC(C)OC(=O)c1cc(NC(=S)c2ccccc2)ccc1Cl [Compound 63]
- CC50 (in vitro): 4.3 µg/mL (≈ 12.9 µM)
- EC50 (HIV-1(IIIB)): 0.05 µg/mL (≈ 0.15 µM)
- EC50 (HIV-1/181-Cys; [1]): 5 µg/mL (≈ 15 µM)
- EC50 (HIV-1/100-Ile; [2]): 4.5 µg/mL (≈ 13.5 µM)
- EC50 (HIV-1/106-Ala; [3]): 5 µg/mL (≈ 15 µM)
- EC50 (HIV-1/Lys-138; [4]): 2.2 µg/mL (≈ 6.59 µM)

SMILES: Cc1occc1C(=S)Nc1ccc(Cl)c(C(=O)OCC(F)(F)F)c1 [Compound 106]
- CC50 (in vitro): > 100 µg/mL
- EC50 (HIV-1(IIIB)): 0.007 µg/mL (≈ 0.0185 µM)
- EC50 (HIV-1/181-Cys; [1]): 0.085 µg/mL (≈ 0.225 µM)
- EC50 (HIV-1/100-Ile; [2]): 0.5 µg/mL (≈ 1.32 µM)
- EC50 (HIV-1/106-Ala; [3]): 0.08 µg/mL (≈ 0.212 µM)
- EC50 (HIV-1/Lys-138; [4]): 0.065 µg/mL (≈ 0.172 µM)

SMILES: CCC(CC)OC(=O)c1cc(NC(=S)c2ccoc2C)ccc1Cl [Compound 107]
- CC50 (in vitro): 16 µg/mL (≈ 43.7 µM)
- EC50 (HIV-1(IIIB)): 0.04 µg/mL (≈ 0.109 µM)
- EC50 (HIV-1/181-Cys; [1]): 0.3 µg/mL (≈ 0.82 µM)
- EC50 (HIV-1/100-Ile; [2]): 0.6 µg/mL (≈ 1.64 µM)
- EC50 (HIV-1/106-Ala; [3]): 0.3 µg/mL (≈ 0.82 µM)
- EC50 (HIV-1/Lys-138; [4]): 0.15 µg/mL (≈ 0.41 µM)

SMILES: COc1ccccc1C(=S)Nc1ccc(Cl)c(C(=O)OC2CCCCC2)c1 [Compound 81]
- CC50 (in vitro): 12 µg/mL (≈ 29.7 µM)
- EC50 (HIV-1(IIIB)): 0.04 µg/mL (≈ 0.099 µM)
- EC50 (HIV-1/181-Cys; [1]): 4.5 µg/mL (≈ 11.1 µM)
- EC50 (HIV-1/100-Ile; [2]): 0.7 µg/mL (≈ 1.73 µM)
- EC50 (HIV-1/106-Ala; [3]): 0.65 µg/mL (≈ 1.61 µM)
- EC50 (HIV-1/Lys-138; [4]): 0.6 µg/mL (≈ 1.49 µM)

SMILES: Cc1ccccc1C(=S)Nc1ccc(Cl)c(C(=O)OC(C)C)c1 [Compound 91]
- CC50 (in vitro): 5.8 µg/mL (≈ 16.7 µM)
- EC50 (HIV-1(IIIB)): 0.45 µg/mL (≈ 1.29 µM)
- EC50 (HIV-1/181-Cys; [1]): 7.5 µg/mL (≈ 21.6 µM)
- EC50 (HIV-1/100-Ile; [2]): 4.5 µg/mL (≈ 12.9 µM)
- EC50 (HIV-1/106-Ala; [3]): 8.5 µg/mL (≈ 24.4 µM)
- EC50 (HIV-1/Lys-138; [4]): 5 µg/mL (≈ 14.4 µM)

SMILES: Cc1occc1C(=O)Nc1ccc(Cl)c(COC(C)(C)C)c1 [Compound 52]
- CC50 (in vitro): 6.2 µg/mL (≈ 19.3 µM)
- EC50 (HIV-1(IIIB)): 0.7 µg/mL (≈ 2.18 µM)
- EC50 (HIV-1/181-Cys; [1]): ≥ 10 µg/mL
- EC50 (HIV-1/100-Ile; [2]): 8.5 µg/mL (≈ 26.4 µM)
- EC50 (HIV-1/106-Ala; [3]): 5.5 µg/mL (≈ 17.1 µM)
- EC50 (HIV-1/Lys-138; [4]): 4 µg/mL (≈ 12.4 µM)
